Experimental data: the supplement of paper PMC11061612

Tests used:
RT4 (Bladder Carcinoma) [1] = assay: combination Emax (second highest fraction inhibited in the dose matrix, 72 h); higher = more inhibition; extreme values may be limits of the assay
Method in brief: (§1)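 Bliss excess equals the observed combination effect minus the expected value EA + EB − EA·EB, where EA and EB are the effects of each agent alone. Combination Emax is the second-highest inhibition within the matrix. Inhibition was scaled from CellTiter-Glo 2.0 luminescence, with 0 set by vehicle wells and 1 by blank wells, after 72 hours of two-drug dosing of cells plated in 1536-well plates.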

[2] = test system: RPMI-8866 (Chronic Myelogenous Leukemia); assay: as above
Method in brief: as §1

[3] = test system: JHH-1 (Hepatocellular Carcinoma); assay: as above
Method in brief: as §1

[4] = test system: NCI-H1155 (Non-Small Cell Lung Carcinoma); assay: as above
Method in brief: as §1

786-0 (Kidney Carcinoma) [5] = assay: as above
Method in brief: as §1

[6] = test system: NCI-H196 (Small Cell Lung Carcinoma); assay: as above
Method in brief: as §1

[7] = test system: OVTOKO (Ovarian Carcinoma); assay: as above
Method in brief: as §1

[8] = test system: BALL-1 (B-Lymphoblastic Leukemia); assay: as above
Method in brief: as §1

[9] = test system: SNU-175 (Colorectal Carcinoma); assay: as above
Method in brief: as §1

[10] = test system: Calu-6 (Non-Small Cell Lung Carcinoma); assay: as above
Method in brief: as §1

[11] = test system: HTC-C3 (Thyroid Gland Carcinoma); assay: as above
Method in brief: as §1

[12] = test system: NCI-H1563 (Lung Adenocarcinoma); assay: as above
Method in brief: as §1

ES-2 (Ovarian Carcinoma) [13] = assay: as above
Method in brief: as §1

[14] = test system: SJRH30 (Rhabdomyosarcoma); assay: as above
Method in brief: as §1

[15] = test system: OCI-AML5 (Acute Myeloid Leukemia); assay: as above
Method in brief: as §1

[16] = test system: NCI-H1623 (Lung Adenocarcinoma); assay: as above
Method in brief: as §1

[17] = test system: PC-14 (Lung Adenocarcinoma); assay: as above
Method in brief: as §1

[18] = test system: RERF-LC-KJ (Lung Adenocarcinoma); assay: as above
Method in brief: as §1

[19] = test system: HSC-3 (Oral Cavity Carcinoma); assay: as above
Method in brief: as §1

[20] = test system: AsPC-1 (Pancreatic Carcinoma); assay: as above
Method in brief: as §1

[21] = test system: AN3-CA (Endometrial Carcinoma); assay: as above
Method in brief: as §1

[22] = test system: RL95-2 (Endometrial Carcinoma); assay: as above
Method in brief: as §1

HuO-3N1 (Osteosarcoma) [23] = assay: as above
Method in brief: as §1

RT4 (Bladder Carcinoma) [24] = assay: Bliss excess, mean over the matrix (fraction); higher = more synergy
Method in brief: as §1

[25] = test system: RPMI-8866 (Chronic Myelogenous Leukemia); assay: as above
Method in brief: as §1

[26] = test system: JHH-1 (Hepatocellular Carcinoma); assay: as above
Method in brief: as §1

[27] = test system: NCI-H1155 (Non-Small Cell Lung Carcinoma); assay: as above
Method in brief: as §1

786-0 (Kidney Carcinoma) [28] = assay: as above
Method in brief: as §1

[29] = test system: NCI-H196 (Small Cell Lung Carcinoma); assay: as above
Method in brief: as §1

[30] = test system: OVTOKO (Ovarian Carcinoma); assay: as above
Method in brief: as §1

[31] = test system: BALL-1 (B-Lymphoblastic Leukemia); assay: as above
Method in brief: as §1

[32] = test system: SNU-175 (Colorectal Carcinoma); assay: as above
Method in brief: as §1

[33] = test system: Calu-6 (Non-Small Cell Lung Carcinoma); assay: as above
Method in brief: as §1

[34] = test system: HTC-C3 (Thyroid Gland Carcinoma); assay: as above
Method in brief: as §1

[35] = test system: NCI-H1563 (Lung Adenocarcinoma); assay: as above
Method in brief: as §1

ES-2 (Ovarian Carcinoma) [36] = assay: as above
Method in brief: as §1

[37] = test system: SJRH30 (Rhabdomyosarcoma); assay: as above
Method in brief: as §1

[38] = test system: OCI-AML5 (Acute Myeloid Leukemia); assay: as above
Method in brief: as §1

[39] = test system: NCI-H1623 (Lung Adenocarcinoma); assay: as above
Method in brief: as §1

[40] = test system: PC-14 (Lung Adenocarcinoma); assay: as above
Method in brief: as §1

[41] = test system: RERF-LC-KJ (Lung Adenocarcinoma); assay: as above
Method in brief: as §1

[42] = test system: HSC-3 (Oral Cavity Carcinoma); assay: as above
Method in brief: as §1

[43] = test system: AsPC-1 (Pancreatic Carcinoma); assay: as above
Method in brief: as §1

[44] = test system: AN3-CA (Endometrial Carcinoma); assay: as above
Method in brief: as §1

[45] = test system: RL95-2 (Endometrial Carcinoma); assay: as above
Method in brief: as §1

HuO-3N1 (Osteosarcoma) [46] = assay: as above
Method in brief: as §1

In the case of `COc1nnc2ccc(N3CCC(c4ccc(OCCN5CCN(C)C(=O)[C@H]5C)cc4)CC3)nn12` [AZD5153] + CN(CC[C@H](CSC1=CC=CC=C1)NC2=C(C=C(C=C2)S(=O)(=O)NC(=O)C3=CC=C(C=C3)N4CCC(CC4)[C@H](C5=CC=CC=C5C6=CC=C(C=C6)Cl)O)S(=O)(=O)C(F)(F)F)CCO [AZD4320] (first compound max 1 µM, 7x7, partner max 1 µM), the “combination Emax” value (RT4 (Bladder Carcinoma) [1]) is reported as 0.545, the “combination Emax” value [2] is reported as 0.87 and the “combination Emax” value [3] is reported as 0.777. The “combination Emax” value [4] was 0.974, the “combination Emax” value (786-0 (Kidney Carcinoma) [5]) was 0.557 and the “combination Emax” value [6] was 0.276. For the same compound, the “combination Emax” value [7] was 0.495, the “combination Emax” value [8] was 1 and the “combination Emax” value [9] was 0.759. The “combination Emax” value [10] was 0.574, the “combination Emax” value [11] was 0.968 and the “combination Emax” value [12] was 0.536. The “combination Emax” value (ES-2 (Ovarian Carcinoma) [13]) was 0.745, the “combination Emax” value [14] was 0.706 and the “combination Emax” value [15] was 1. For the same compound, the “combination Emax” value [16] was 0.46, the “combination Emax” value [17] was 0.421 and the “combination Emax” value [18] was 0.979. For the same compound, the “combination Emax” value [19] was 0.712, the “combination Emax” value [20] was 0.559 and the “combination Emax” value [21] was 0.255. The “combination Emax” value [22] was 0.452, the “combination Emax” value (HuO-3N1 (Osteosarcoma) [23]) was 0.466 and the Bliss excess (RT4 (Bladder Carcinoma) [24]) was 0.0826. It also gave a Bliss excess [25] of -0.0318, a Bliss excess [26] of 0.0585 and a Bliss excess [27] of 0.0603. For the same compound, the Bliss excess (786-0 (Kidney Carcinoma) [28]) was 0.0508, the Bliss excess [29] was 0.0277 and the Bliss excess [30] was 0.0926. The Bliss excess [31] was -0.0008, the Bliss excess [32] was 0.002 and the Bliss excess [33] was -0.0429. For the same compound, the Bliss excess [34] was 0.0859, the Bliss excess [35] was 0.0003 and the Bliss excess (ES-2 (Ovarian Carcinoma) [36]) was 0.0277. For the same compound, the Bliss excess [37] was 0.0517, the Bliss excess [38] was 0.0299 and the Bliss excess [39] was -0.0087. It also gave a Bliss excess [40] of 0.0111, a Bliss excess [41] of -0.0066 and a Bliss excess [42] of 0.0794. It also gave a Bliss excess [43] of -0.08, a Bliss excess [44] of 0.0161 and a Bliss excess [45] of 0.0571. It also gave a Bliss excess (HuO-3N1 (Osteosarcoma) [46]) of 0.0645.
For `CC(=O)c1c(C)c2cnc(Nc3ccc(N4CCNCC4)cn3)nc2n(C2CCCC2)c1=O` [Palbociclib] + CN(CC[C@H](CSC1=CC=CC=C1)NC2=C(C=C(C=C2)S(=O)(=O)NC(=O)C3=CC=C(C=C3)N4CCC(CC4)[C@H](C5=CC=CC=C5C6=CC=C(C=C6)Cl)O)S(=O)(=O)C(F)(F)F)CCO [AZD4320] (first compound max 10 µM, 7x7, partner max 1 µM), the “combination Emax” value (RT4 (Bladder Carcinoma) [1]) was 0.383, the “combination Emax” value [2] was 0.927 and the “combination Emax” value [3] was 0.519. For the same compound, the “combination Emax” value [4] was 0.994, the “combination Emax” value (786-0 (Kidney Carcinoma) [5]) was 0.534 and the “combination Emax” value [6] was 0.276. The “combination Emax” value [7] was 0.53, the “combination Emax” value [8] was 1 and the “combination Emax” value [9] was 0.877. For the same compound, the “combination Emax” value [10] was 0.623, the “combination Emax” value [11] was 0.515 and the “combination Emax” value [12] was 0.348. The “combination Emax” value (ES-2 (Ovarian Carcinoma) [13]) was 0.621, the “combination Emax” value [14] was 0.37 and the “combination Emax” value [15] was 1. The “combination Emax” value [16] was 0.387, the “combination Emax” value [17] was 0.311 and the “combination Emax” value [18] was 0.141. For the same compound, the “combination Emax” value [19] was 0.613, the “combination Emax” value [20] was 0.488 and the “combination Emax” value [21] was 0.709. For the same compound, the “combination Emax” value [22] was 0.358, the “combination Emax” value (HuO-3N1 (Osteosarcoma) [23]) was 0.494 and the Bliss excess (RT4 (Bladder Carcinoma) [24]) was -0.0409. It also gave a Bliss excess [25] of -0.0036, a Bliss excess [26] of -0.0291 and a Bliss excess [27] of 0.0351. For the same compound, the Bliss excess (786-0 (Kidney Carcinoma) [28]) was -0.0388, the Bliss excess [29] was -0.0489 and the Bliss excess [30] was -0.0621. It also gave a Bliss excess [31] of -0.0446, a Bliss excess [32] of -0.0082 and a Bliss excess [33] of 0.0279. The Bliss excess [34] was -0.0712, the Bliss excess [35] was -0.0292 and the Bliss excess (ES-2 (Ovarian Carcinoma) [36]) was -0.0649. It also gave a Bliss excess [37] of -0.0467, a Bliss excess [38] of -0.0327 and a Bliss excess [39] of -0.0783. The Bliss excess [40] was -0.0307, the Bliss excess [41] was -0.0742 and the Bliss excess [42] was -0.0254. For the same compound, the Bliss excess [43] was -0.129, the Bliss excess [44] was 0.0108 and the Bliss excess [45] was -0.0566. The Bliss excess (HuO-3N1 (Osteosarcoma) [46]) was -0.0289.
